Laboratory results from patent publication US20150315218A1, “SALTS OF PRODRUGS OF PIPERAZINE AND SUBSTITUTED PIPERIDINE ANTIVIRAL AGENTS” (Bristol-Myers Squibb Company, priority 2004, published 2015).
Where a name gives a salt, the structure may show the parent alone.

Assays:
[1] = Stability of prodrug in Tris-HCl buffer; details: for Ibb: Ibb in Tris-HCl buffer, 37° C., n = 2
Protocol: The stability of Iab was also evaluated, as described above, in Tris-HCl buffer (0.1 M, pH 7.5). The stability of Ibb was also evaluated, as described above, in Tris-HCl buffer (0.1 M, pH 7.5). The stability of Icb was also evaluated, as described above, in Tris-HCl buffer (0.1 M, pH 7.5).

[2] = in vitro; details: monkey, serum
Protocol: (§2) The stability of Iab was studied in fresh blood and serum from rat, dog, monkey and human (n=2). The blood was collected in vacutainers containing K2EDTA (Becton Dickinson, Franklin Lakes, N.J.). The serum was collected in vacutainers containing no anticoagulant. Iab was incubated at a starting concentration of approximately 10 μM for 60-90 min at 37° C. Serial samples were taken at the pre-determined times. Aliquots of blood samples (200 μL) were first mixed with 100 μL of water followed by 400 μL of acetonitrile. The serum samples (50 μL) were added into microtainers containing K2EDTA (Becton Dickinson, Franklin Lakes, N.J.) followed by the addition of 100 μL of acetonitrile. The supernatant was analyzed for both Iab and IVa by LC/MS/MS. The stability of Ibb was studied in fresh blood and serum from rat, dog, monkey and human (n=2). The blood was collected in vacutainers containing K2EDTA (Becton Dickinson, Franklin Lakes, N.J.). The serum was collected in vacutainers containing no anticoagulant. Ibb was incubated at a starting concentration of approximately 15 μM for 90 min at 37° C. Serial samples were taken at the pre-determined times. Aliquots of blood samples (200 μL) were first mixed with 100 μL of water followed by 400 μL of acetonitrile. The serum samples (50 μL) were added into microtainers containing K2EDTA (Becton Dickinson, Franklin Lakes, N.J.) followed by the addition of 100 μL of acetonitrile. […] The stability of Icb was studied in fresh blood and serum from rat, dog, monkey and human (n=2). The blood was collected in vacutainers containing K2EDTA (Becton Dickinson, Franklin Lakes, N.J.). The serum was collected in vacutainers containing no anticoagulant. Icb was incubated at a starting concentration of approximately 10 μM for 90 min at 37° C. Serial samples were taken at the pre-determined times. Aliquots of blood samples (200 μL) were first mixed with 100 μL of water followed by 400 μL of acetonitrile. The serum samples (50 μL) were added into microtainers containing K2EDTA (Becton Dickinson, Franklin Lakes, N.J.) followed by the addition of 100 μL of acetonitrile.

[3] = in vitro; details: dog, serum
Protocol: as §2

[4] = Stability of prodrug in fresh EDTA blood (human); details: for Ibb: Ibb in fresh human EDTA blood, 37° C., n = 2
Protocol: as §2

[5] = Stability of prodrug in fresh EDTA blood (rat); details: for Ibb: Ibb in fresh rat EDTA blood, 37° C., n = 2
Protocol: as §2

[6] = Stability (hydrolysis) of prodrug in fresh serum (dog); details: Ibb in fresh dog serum, 37° C., n = 2
Protocol: as §2

[7] = Stability of prodrug in fresh EDTA blood (dog); details: for Ibb: Ibb in fresh dog EDTA blood, 37° C., n = 2
Protocol: as §2

[8] = Stability (hydrolysis) of prodrug in fresh serum (rat); details: Ibb in fresh rat serum, 37° C., n = 2
Protocol: as §2

[9] = system: monkey hepatocytes; assay: Hydrolysis of prodrug in hepatocytes (monkey); assay type: in vitro ADME; details: monkey hepatocytes, qualitative
Protocol: (§1) The in vitro intrinsic clearance of Ibb in hepatocytes (Clint) was calculated as follows: Clint(μL/min/million cells)=Rate/CE where Rate is the rate of metabolism in hepatocytes (pmol/min/million cells), and CE is the concentration of Ibb in the incubation. The in vitro intrinsic clearance of Icb in hepatocytes (Clint) was calculated as follows: Clint(μL/min/million cells)=Rate/CE where Rate is the rate of metabolism in hepatocytes (pmol/min/million cells), and CE is the concentration of Icb in the incubation.

[10] = Stability (hydrolysis) of prodrug in fresh serum (human); details: Ibb in fresh human serum, 37° C., n = 2
[11] = Stability (hydrolysis) of prodrug in fresh serum (monkey); details: Ibb in fresh monkey serum, 37° C., n = 2
Protocol: as §2

[12] = Stability of prodrug in fresh EDTA blood (monkey); details: for Ibb: Ibb in fresh monkey EDTA blood, 37° C., n = 2
Protocol: as §2

[13] = system: dog hepatocytes; assay: Hydrolysis of prodrug in hepatocytes (dog); assay type: in vitro ADME; details: dog hepatocytes, qualitative
Protocol: as §1

SMILES: O=C(C(=O)N1CCN(C(=O)c2ccccc2)CC1)c1cn(COP(=O)(O)O)c2c(-n3ccnn3)ncc(F)c12 [Ibb, [3-[(4-benzoylpiperazin-1-yl)(oxo)acetyl]-4-fluoro-7-(1H-1,2,3-triazol-1-yl)-1H-pyrrolo[2,3-c]pyridin-1-yl]methyl dihydrogen phosphate, L-lysine salt (1:1)]
- stability / conversion of prodrug to parent in Tris-HCl buffer ([1]; 37°C, 60 min (Iab) or 90 min (Ibb, Icb)): less than 2%
- Ibb ([1]; 0 min): 14 µM
- Ibb ([1]; 15 min): 12 µM
- Ibb ([1]; 30 min): 13 µM
- Ibb ([1]; 45 min): 12 µM
- Ibb ([1]; 60 min): 13 µM
- Ibb ([1]; 90 min): 12 µM
- half-life at 15 μM [2]: 0.25 h
- half-life at 15 μM [3]: 2.78 h
- Ibb ([4]; 0 min): 16 µM
- Ibb ([4]; 15 min): 15 µM
- Ibb ([4]; 30 min): 16 µM
- Ibb ([4]; 45 min): 16 µM
- Ibb ([4]; 60 min): 16 µM
- Ibb ([4]; 90 min): 18 µM
- conversion of prodrug to parent in blood containing EDTA ([4]; human blood, 37°C, 60 min (Iab) or 90 min (Ibb, Icb)): < 2%
- Ibb ([5]; 0 min): 15 µM
- Ibb ([5]; 15 min): 15 µM
- Ibb ([5]; 30 min): 18 µM
- Ibb ([5]; 45 min): 15 µM
- Ibb ([5]; 60 min): 16 µM
- Ibb ([5]; 90 min): 17 µM
- conversion of prodrug to parent in blood containing EDTA ([5]; rat blood, 37°C, 60 min (Iab) or 90 min (Ibb, Icb)): < 2%
- Ibb ([6]; 0 min): 13 µM
- Ibb ([6]; 15 min): 12 µM
- Ibb ([6]; 30 min): 11 µM
- Ibb ([6]; 45 min): 10 µM
- Ibb ([6]; 60 min): 10 µM
- Ibb ([6]; 90 min): 8.9 µM
- Ibb ([7]; 0 min): 13 µM
- Ibb ([7]; 15 min): 12 µM
- Ibb ([7]; 30 min): 15 µM
- Ibb ([7]; 45 min): 16 µM
- Ibb ([7]; 60 min): 13 µM
- Ibb ([7]; 90 min): 16 µM
- conversion of prodrug to parent in blood containing EDTA ([7]; dog blood, 37°C, 60 min (Iab) or 90 min (Ibb, Icb)): < 2%
- Ibb ([8]; 0 min): 12 µM
- Ibb ([8]; 15 min): 9.4 µM
- Ibb ([8]; 30 min): 9.2 µM
- Ibb ([8]; 45 min): 9.4 µM
- Ibb ([8]; 60 min): 9.3 µM
- Ibb ([8]; 90 min): 9.0 µM
- hydrolysis in the presence of hepatocytes [9]: No turnover was observed
- Ibb ([10]; 0 min): 13 µM
- Ibb ([10]; 15 min): 9.0 µM
- Ibb ([10]; 30 min): 10 µM
- Ibb ([10]; 45 min): 10 µM
- Ibb ([10]; 60 min): 8.0 µM
- Ibb ([10]; 90 min): 6.5 µM
- Ibb ([11]; 0 min): 14 µM
- Ibb ([11]; 15 min): 6.6 µM
- Ibb ([11]; 30 min): 3.1 µM
- Ibb ([11]; 45 min): 1.7 µM
- Ibb ([11]; 60 min): 0.85 µM
- Ibb ([11]; 90 min): 0.22 µM
- Ibb ([12]; 0 min): 16 µM
- Ibb ([12]; 15 min): 19 µM
- Ibb ([12]; 30 min): 18 µM
- Ibb ([12]; 45 min): 18 µM
- Ibb ([12]; 60 min): 19 µM
- Ibb ([12]; 90 min): 17 µM
- conversion of prodrug to parent in blood containing EDTA ([12]; monkey blood, 37°C, 60 min (Iab) or 90 min (Ibb, Icb)): < 2%
- hydrolysis in the presence of hepatocytes [13]: hydrolyzed
